{"source": "patent US20130280270A1", "about": "“METHODS OF TREATING LUNG DISEASE AND OTHER INFLAMMATORY DISEASES” (Duke University, priority 2009, published 2013)", "key": {"ozone-induced AHR": {"test_system": "ozone-induced AHR", "assay": "Ozone-induced AHR mouse model (asthma precipitated by air pollution)", "assay_type": "in vivo", "excerpt": "(§1) We have carried out experiments with GRP blockade given as an intraperitoneal (IP) injection to prevent and/or treat AHR in several different mouse models of airways hyperreactivity (AHR) and/or inflammation: ozone-induced AHR as a model for asthma precipitated by air pollution, ovalbumin (OVA)-induced AHR as a model of allergic airways inflammation, and endotoxin (lipopolysaccharide, LPS)-induced AHR as a first step towards assessing infectious causes of asthma. These experiments used the small molecule GRP inhibitor, 77427, or a monoclonal anti-GRP blocking antibody, 2A 11. […] In the near future, we hope to test GRP blockade in additional mouse models of asthma, including: Mycoplasma infection, respiratory syncytial virus (RSV) infection, Aspergillus infection, and house dust mite exposure.\n(§2) In contrast, mice were treated with dexamethasone (Dex), the standard of care for asthma, before ozone exposure."}, "neovascularization": {"test_system": "neovascularization", "settings": "on a molar basis (≈500 nM), compared with MoAb-2A11; cited from earlier work"}, "[1]": {"settings": "F. Cuttitta, unpublished data; cited from earlier work"}, "[2]": {"test_system": "ovalbumin (OVA)-induced AHR", "assay": "Ovalbumin (OVA)-induced AHR mouse model (allergic airways inflammation)", "assay_type": "in vivo", "excerpt": "as §1, §2"}, "[3]": {"test_system": "chronic radiation pneumonitis", "assay": "Chronic radiation pneumonitis in mice after 15 Gy thoracic radiation", "assay_type": "in vivo", "settings": "500 nM 77427 twice a week IP following 15 Gy thoracic radiation", "procedure": "We can also block chronic radiation pneumonitis in mice given 500 nM 77427 twice a week IP following 15 Gy thoracic radiation."}, "cytokines": {"test_system": "cytokines", "assay": "Cytokine levels in ozone and ovalbumin in vivo mouse models of asthma", "excerpt": "We have carried out experiments with GRP blockade given as an intraperitoneal (IP) injection to prevent and/or treat AHR in several different mouse models of airways hyperreactivity (AHR) and/or inflammation: ozone-induced AHR as a model for asthma precipitated by air pollution, ovalbumin (OVA)-induced AHR as a model of allergic airways inflammation, and endotoxin (lipopolysaccharide, LPS)-induced AHR as a first step towards assessing infectious causes of asthma. […] The invention would extend to any compound able to block GRP signaling by either binding to GRP itself or to the GRP receptor, which are part of the same signal transduction cascade. In the near future, we hope to test GRP blockade in additional mouse models of asthma, including: Mycoplasma infection, respiratory syncytial virus (RSV) infection, Aspergillus infection, and house dust mite exposure."}, "GRP [4]": {"target": "T1, GRP (Homo sapiens, UniProt P07492)", "T1 sequence (P07492 24-50 limits assumed)": "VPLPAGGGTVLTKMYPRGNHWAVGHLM", "settings": "prevention of antibody-ligand interaction; blocking GRP-induced IP3 production and Ca2+ flux; cited from earlier work"}, "GRP [5]": {"target": "T1, GRP", "settings": "cited from earlier work"}, "[6]": {"test_system": "endothelial cell tube formation", "settings": "Matrigel support matrix; cited from earlier work"}, "GRP-induced angiogenesis": {"test_system": "GRP-induced angiogenesis", "settings": "in vitro and in vivo; cited from earlier work"}, "GRP receptor": {"test_system": "GRP receptor", "settings": "lung slices from one non-human primate, 2 slices MCh + antagonist; morphological assessment; cited from earlier work"}}, "note": "Where two headings read alike, the source gives them in different places."}
{"compound": "C[C@@H]1C[C@H]2[C@@H]3CCC4=CC(=O)C=C[C@]4(C)[C@@]3(F)[C@@H](O)C[C@]2(C)[C@@]1(O)C(=O)CO", "note": "[Dex, dexamethasone]", "values": [{"measurement": "number of cytokines with significantly increased levels", "setting": "ozone-induced AHR; treatment before ozone, IL-6, IL-12 (p40), TNFα", "value": 3}]}
{"compound": "Nc1nc(Cl)cc(NCCO)n1", "note": "[compound 77427]", "values": [{"measurement": "suppressive response in stopping neovascularization", "setting": "neovascularization", "value": "equivalent suppressive response as MoAb-2A11"}, {"measurement": "airway hyperreactivity (AHR)", "setting": "ozone-induced AHR; ozone model", "value": "abrogates"}, {"measurement": "airways inflammation", "setting": "ozone-induced AHR; ozone model", "value": "abrogates"}, {"measurement": "half-life", "setting": "[1]", "value": "~240", "unit": "h"}, {"measurement": "airway hyperreactivity (AHR)", "setting": "[2]", "value": "abrogates"}, {"measurement": "airways inflammation", "setting": "[2]", "value": "abrogates"}, {"measurement": "chronic radiation pneumonitis", "setting": "[3]", "value": "block"}, {"measurement": "Interleukin-2 (IL-2)", "setting": "cytokines; FIG. 2A", "value": "suppression"}, {"measurement": "TNF-alpha", "setting": "cytokines; FIG. 2C", "value": "suppression"}, {"measurement": "GM-CSF", "setting": "cytokines; FIG. 2D", "value": "suppression"}, {"measurement": "IL-4", "setting": "cytokines; FIG. 2E", "value": "suppression"}, {"measurement": "IL-5", "setting": "cytokines; FIG. 2F", "value": "suppression"}, {"measurement": "IL-13", "setting": "cytokines; FIG. 2G", "value": "suppression"}, {"measurement": "IL-6", "setting": "cytokines; FIG. 2H", "value": "suppression"}, {"measurement": "IL-17", "setting": "cytokines; FIG. 2I", "value": "suppression"}, {"measurement": "MCP-1", "setting": "cytokines; FIG. 2J", "value": "suppression"}, {"measurement": "KC", "setting": "cytokines; FIG. 2K", "value": "suppression"}, {"measurement": "VEGF", "setting": "cytokines; FIG. 2L", "value": "suppression"}, {"measurement": "cytokines tested whose increased levels are significantly suppressed (P<0.0001) or abrogated", "setting": "cytokines; ozone and ovalbumin models, cytokines represent at least 5 inflammatory cell types", "value": "21 of 21"}, {"measurement": "mimetic to MoAb-2A11 / antagonist to GRP in screen", "setting": "GRP [4]", "value": "ideal mimetic to MoAb-2A11"}, {"measurement": "blocks % of GRP", "setting": "GRP [5]; 5 nM 77427", "value": 50, "unit": "%"}, {"measurement": "blocks % of GRP", "setting": "GRP [5]; 50 nM 77427", "value": 70, "unit": "%"}, {"measurement": "blocks % of GRP", "setting": "GRP [5]; 500 nM 77427", "value": 95, "unit": "%"}, {"measurement": "blocking of GRP mediated endothelial cell tube formation", "setting": "[6]", "value": "effective blocker"}, {"measurement": "inhibition of GRP-induced angiogenesis", "setting": "GRP-induced angiogenesis", "value": "potent inhibitor"}]}
{"compound": "[Leu^13-(ψ-CH2NH)-Leu^14]-bombesin", "values": [{"measurement": "MCh-induced reduction of internal airway diameter (bronchoconstriction) of bronchi", "setting": "GRP receptor", "value": "slightly reduced"}]}
